Test results as given in patent US9156796B2, “Benzoimidazole-carboxylic acid amide derivatives as APJ receptor modulators” (SANOFI, priority 2013, dated 2015).
Read-outs that look alike come from different tables or passages of the source.

Target: T1, human apelin receptor (Homo sapiens, UniProt P35414)
T1 construct: expressed in transfected cells
T1 sequence (P35414 1-380): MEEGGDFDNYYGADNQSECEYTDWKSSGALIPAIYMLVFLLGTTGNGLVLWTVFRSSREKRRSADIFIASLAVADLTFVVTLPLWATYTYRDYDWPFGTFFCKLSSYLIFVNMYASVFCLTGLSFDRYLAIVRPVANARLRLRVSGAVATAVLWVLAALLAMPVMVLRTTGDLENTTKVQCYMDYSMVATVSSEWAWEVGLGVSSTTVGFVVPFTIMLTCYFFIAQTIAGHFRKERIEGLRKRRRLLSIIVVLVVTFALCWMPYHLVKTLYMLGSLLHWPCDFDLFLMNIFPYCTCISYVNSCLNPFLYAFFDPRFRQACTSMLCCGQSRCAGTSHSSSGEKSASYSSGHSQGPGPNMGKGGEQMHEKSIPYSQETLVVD
Experiment: Determination of agonism on the human apelin receptor by a calcium fluorescence assay (FLIPR)
Assay type: cell-based
Conditions: HEK293 cells stably transfected with human apelin receptor and Giaq protein, Fluo-4 calcium fluorescence
How it was run: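 HEK293 cells stably co-expressing human apelin receptor and promiscuous Giaq, loaded 1 h at 37 °C with Fluo-4 (4 μM) in probenecid-containing Hepes buffer, pH 7.4. Compounds, at least 7 concentrations in triplicate, added in FLIPR Tetra; peak calcium fluorescence normalized to 1 μM apelin-13 as 100% to derive EC50.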

| EC50 (read-out: EC50 (APJ agonism)) [µM] | Structure (SMILES) | EC50 (EC50 (APJ agonism)) [µM] |
| --- | --- | --- |
| 8.91 | CCC(CC)n1c(CC2CCCC2)nc2cc(C(=O)N[C@@H](CO)CC(C)C)ccc21 [Example 176, 2-Cyclopentylmethyl-1-(1-ethyl-propyl)-1H-benzoimidazole-5-carboxylic acid ((R)-1-hydroxymethyl-3-methyl-butyl)-amide] | – |
| 2.42 | CCC(CC)n1c(Cc2cccs2)nc2cc(C(=O)N[C@H](CO)CC3CCCCC3)ccc21 [Example 177, 1-(1-Ethyl-propyl)-2-thiophen-2-ylmethyl-1H-benzoimidazole-5-carboxylic acid ((S)-1-cyclohexylmethyl-2-hydroxy-ethyl)-amide] | – |
| 25.2 | CCC(CC)n1c(CC2CCCC2)nc2cc(C(=O)NC3(CO)CCCC3)ccc21 [Example 179, 2-Cyclopentylmethyl-1-(1-ethyl-propyl)-1H-benzoimidazole-5-carboxylic acid (1-hydroxymethyl-cyclopentyl)-amide] | – |
| 6.17 | CCC(CC)n1c(CC2CCCC2)nc2cc(C(=O)N[C@H](CO)[C@@H](C)CC)ccc21 [Example 180, 2-Cyclopentylmethyl-1-(1-ethyl-propyl)-1H-benzoimidazole-5-carboxylic acid ((1S,2S)-1-hydroxymethyl-2-methyl-butyl)-amide] | – |
| 6.95 | CCCC(CO)NC(=O)c1ccc2c(c1)nc(CC1CCCC1)n2C(CC)CC (stereo not drawn) [Example 181, 2-Cyclopentylmethyl-1-(1-ethyl-propyl)-1H-benzoimidazole-5-carboxylic acid (1-hydroxymethyl-butyl)-amide] | – |
| 14.1 | CCC[C@H](CO)NC(=O)c1ccc2c(c1)nc(CC1CCCC1)n2C(CC)CC [Example 185, 2-Cyclopentylmethyl-1-(1-ethyl-propyl)-1H-benzoimidazole-5-carboxylic acid ((R)-1-hydroxymethyl-butyl)-amide] | – |
| 4.67 | CCC[C@@H](CO)NC(=O)c1ccc2c(c1)nc(CC1CCCC1)n2C(CC)CC [Example 186, 2-Cyclopentylmethyl-1-(1-ethyl-propyl)-1H-benzoimidazole-5-carboxylic acid ((S)-1-hydroxymethyl-butyl)-amide] | – |
| 29 | CCC(CC)n1c(CC2CCCC2)nc2cc(C(=O)N[C@H](CO)C(C)C)ccc21 [Example 187, 2-Cyclopentylmethyl-1-(1-ethyl-propyl)-1H-benzoimidazole-5-carboxylic acid ((S)-1-hydroxymethyl-2-methyl-propyl)-amide] | – |
| 4.52 | CCC(CC)n1c(Cc2cccs2)nc2cc(C(=O)N[C@H](CO)CCSC)ccc21 [Example 188, 1-(1-Ethyl-propyl)-2-thiophen-2-ylmethyl-1H-benzoimidazole-5-carboxylic acid ((S)-1-hydroxymethyl-3-methylsulfanyl-propyl)-amide] | – |

The next lines start with the compound.

| Structure (SMILES) | EC50 (read-out: EC50 (APJ agonism)) [µM] | EC50 (EC50 (APJ agonism)) [µM] |
| --- | --- | --- |
| CC(C)CC(C)n1c(Cc2cccs2)nc2cc(C(=O)N[C@@H](CC(C)C)C(=O)O)ccc21 (stereo partly drawn) [Example 166, (S)-2-{[1-(1,3-Dimethyl-butyl)-2-thiophen-2-ylmethyl-1H-benzoimidazole-5-carbonyl]-amino}-4-methyl-pentanoic acid] | 3.04 | – |
| CCC(CC)n1c(CC2CCCC2)nc2cc(C(=O)N[C@H](CO)CC3CCCCC3)ccc21 [Example 167, 2-Cyclopentylmethyl-1-(1-ethyl-propyl)-1H-benzoimidazole-5-carboxylic acid ((S)-1-cyclohexylmethyl-2-hydroxy-ethyl)-amide] | 7.55 | – |
| CC(C)C[C@H](NC(=O)c1ccc2c(c1)nc(Cc1cccs1)n2C1CCCCC1)C(N)=O [Example 168, 1-Cyclohexyl-2-thiophen-2-ylmethyl-1H-benzoimidazole-5-carboxylic acid ((S)-1-carbamoyl-3-methyl-butyl)-amide] | 4.53 | – |
| CCC(CC)n1c(CC2CCCC2)nc2cc(C(=O)NC(CC(C)C)C(N)=O)ccc21 (stereo not drawn) [Example 169, 2-Cyclopentylmethyl-1-(1-ethyl-propyl)-1H-benzoimidazole-5-carboxylic acid (1-carbamoyl-3-methyl-butyl)-amide] | 6.65 | – |
| CCC(CC)n1c(Cc2cccs2)nc2cc(C(=O)NC(C(N)=O)c3ccccc3)ccc21 (stereo not drawn) [Example 170, 1-(1-Ethyl-propyl)-2-thiophen-2-ylmethyl-1H-benzoimidazole-5-carboxylic acid (carbamoyl-phenyl-methyl)-amide] | 10.1 | – |
| CCC(CC)n1c(Cc2cccs2)nc2cc(C(=O)NC(CC(C)C)C(N)=O)ccc21 (stereo not drawn) [Example 171, 1-(1-Ethyl-propyl)-2-thiophen-2-ylmethyl-1H-benzoimidazole-5-carboxylic acid (1-carbamoyl-3-methyl-butyl)-amide] | 0.748 | – |
| CCC(CC)n1c(Cc2cscn2)nc2cc(C(=O)N[C@@H](CC(C)C)C(N)=O)ccc21 [Example 172, 1-(1-Ethyl-propyl)-2-thiazol-4-ylmethyl-1H-benzoimidazole-5-carboxylic acid ((S)-1-carbamoyl-3-methyl-butyl)-amide] | 4.89 | – |
| CCC(CC)n1c(Cc2cccs2)nc2cc(C(=O)N[C@@H](CC3CCCCC3)C(N)=O)ccc21 [Example 173, 1-(1-Ethyl-propyl)-2-thiophen-2-ylmethyl-1H-benzoimidazole-5-carboxylic acid ((S)-1-carbamoyl-2-cyclohexyl-ethyl)-amide] | 6.7 | – |
| CCC(CC)n1c(Cc2cccs2)nc2cc(C(=O)NC(CC(N)=O)CC(C)C)ccc21 (stereo not drawn) [Example 174, 1-(1-Ethyl-propyl)-2-thiophen-2-ylmethyl-1H-benzoimidazole-5-carboxylic acid (1-carbamoylmethyl-3-methyl-butyl)-amide] | 0.301 | – |
| CCC(CC)n1c(CC2CCCC2)nc2cc(C(=O)N[C@H](CO)CC(C)C)ccc21 [Example 175, 2-Cyclopentylmethyl-1-(1-ethyl-propyl)-1H-benzoimidazole-5-carboxylic acid ((S)-1-hydroxymethyl-3-methyl-butyl)-amide] | 0.501 | – |
| CCC(CC)n1c(CC2CCCC2)nc2cc(C(=O)N[C@H](CO)CCSC)ccc21 [Example 178, 2-Cyclopentylmethyl-1-(1-ethyl-propyl)-1H-benzoimidazole-5-carboxylic acid ((S)-1-hydroxymethyl-3-methylsulfanyl-propyl)-amide] | – | 17.4 |
| CCCCC(CO)NC(=O)c1ccc2c(c1)nc(CC1CCCC1)n2C(CC)CC (stereo not drawn) [Example 182, 2-Cyclopentylmethyl-1-(1-ethyl-propyl)-1H-benzoimidazole-5-carboxylic acid (1-hydroxymethyl-pentyl)-amide] | – | 11 |
| CCCC[C@H](CO)NC(=O)c1ccc2c(c1)nc(CC1CCCC1)n2C(CC)CC [Example 183, 2-Cyclopentylmethyl-1-(1-ethyl-propyl)-1H-benzoimidazole-5-carboxylic acid ((R)-1-hydroxymethyl-pentyl)-amide] | – | 26.3 |
| CCCC[C@@H](CO)NC(=O)c1ccc2c(c1)nc(CC1CCCC1)n2C(CC)CC [Example 184, 2-Cyclopentylmethyl-1-(1-ethyl-propyl)-1H-benzoimidazole-5-carboxylic acid ((S)-1-hydroxymethyl-pentyl)-amide] | – | 2.9 |
| CCC(CC)n1c(Cc2cccs2)nc2cc(C(=O)NC(CO)C(C)C)ccc21 (stereo not drawn) [Example 189, 1-(1-Ethyl-propyl)-2-thiophen-2-ylmethyl-1H-benzoimidazole-5-carboxylic acid (1-hydroxymethyl-2-methyl-propyl)-amide] | – | 12.2 |
